The nature of series [1]: Peak depolarizations produced by injections of 100 micro M Ins p3 isomers in nine cells. The class given is cell-based.
Series [2] is described as follows: Peak depolarizations produced by injections of 100 micro M Ins p3 isomers in six cells. The class given is cell-based.

For the compound `O=P(O)(O)OC1C(O)C(O)C(OP(=O)(O)O)C(OP(=O)(O)O)C1O` (stereo in doubt; form 1) [INOSITOL (1,4,5) (PHOSPHATE)3], the Depolarisation in series [1] is 24 mV.

`O=P(O)(O)OC1C(O)C(O)C(OP(=O)(O)O)C(OP(=O)(O)O)C1O` (stereo in doubt; form 2) [INOSITOL (1,4,5) (PHOSPHATE)3]: in series [2], the Depolarisation was 32.5 mV.

Consider `O=P(O)(O)OC1C(O)C(O)C(OP(=O)(O)O)C(OP(=O)(O)O)C1O` (stereo in doubt; form 3) [INOSITOL (1,4,5) (PHOSPHATE)3], for which the Depolarisation in series [1] was found to be 5.7 mV; in series [2], 3.4 mV.

The values are drawn from ChEMBL document CHEMBL1127407, “Unambiguous total synthesis of the enantiomers of myo-inositol 1,3,4-trisphosphate: 1L-myo-inositol 1,3,4-trisphosphate mobilizes intracellular Ca2+ in Limulus photoreceptors” (J Med Chem, 1994).
